Converted amounts (≈) assume the structure as drawn.

Broadly, the MIC is the lowest concentration found to suppress growth. Higher therefore signals a less susceptible organism. Broadly, the GI50 is the concentration giving 50% growth inhibition. The low end stands for more potent growth inhibition, the high end for less potent growth inhibition.

Data set [1] concerns Mycobacterium tuberculosis. Briefly: Antimycobacterial activity against dormant Mycobacterium tuberculosis H37Ra ATCC 25177 after 12 days by XTT dye based two-fold dilution method. Format: functional. The following applies: H37Ra ATCC 25177, 288 h. A general note: Tetrazolium assays rely on reduction of a dye to a coloured formazan, in cell work by metabolically active cells.

Data set [2] concerns Mycobacterium tuberculosis. Briefly: Antimycobacterial activity against dormant Mycobacterium bovis BCG ATCC 35743 after 12 days by neutral red dye based two-fold dilution method. Format: functional. The following applies: BCG str. ATCC 35743, 288 h.
A short description of data set [3]: Selectivity index, ratio of GI50 for human MCF7 cells to MIC for dormant Mycobacterium tuberculosis H37Ra ATCC 25177. Format: toxicity. The following applies: pooled result: one value given for 3 cell lines, strains, targets or settings, read-out: Selectivity Index.
Data set [4] in a line: Selectivity index, ratio of GI50 for human MCF7 cells to MIC for dormant Mycobacterium bovis BCG ATCC 35743. Format: toxicity. The note with it: pooled result: one value given for 3 cell lines, strains, targets or settings, read-out: Selectivity Index.
Data set [5] is described as follows: Cytotoxicity against human MCF7 cells by MTT assay. Format: cell-based.
Data set [6] in a line: Cytotoxicity against human A549 cells by MTT assay. Format: cell-based.

For `Cc1ccc2cc(C3SCC(=O)N3NC(=O)c3ccncc3)c3nnnn3c2c1` (centres undefined), the MIC stood at 2610 µM (≈ 1060 µg/mL) in data set [1] and 300 µM (≈ 122 µg/mL) in data set [2]. Also, the results for the selectivity ratio in data set [3] and in data set [4] were 94.3 and 833, respectively.

Turning to `Cc1ccc2c(c1)cc(C1SCC(=O)N1NC(=O)c1ccncc1)c1nnnn12` (centres undefined), the results for the minimum inhibitory concentration (MIC) in data set [1] and in data set [2] were 2140 µM (≈ 868 µg/mL) and 8430 µM (≈ 3420 µg/mL), respectively. Besides, the selectivity ratio was 115 in data set [3] and 29.2 in data set [4].

Turning to `COc1ccc2c(c1)cc(C1SCC(=O)N1NC(=O)c1ccncc1)c1nnnn12` (centres undefined), the MIC stood at 990 µM (≈ 417 µg/mL) in data set [1] and 140 µM (≈ 59 µg/mL) in data set [2]. Also, the selectivity ratio in data set [3] stood at 238; in data set [4], 11.8.

With `COc1ccc2cc(C3SCC(=O)N3NC(=O)c3ccncc3)c3nnnn3c2c1` (centres undefined), the minimum inhibitory concentration (MIC) in data set [1] worked out at 1660 µM (≈ 700 µg/mL); in data set [2] it was 360 µM (≈ 152 µg/mL). Further, the selectivity ratio in data set [3] is 143; in data set [4] it was 667.

The compound `O=C(NN1C(=O)CSC1c1cc2ccccc2n2nnnc12)c1ccncc1` (centres undefined) registered an MIC in data set [2] of 430 µM (≈ 168 µg/mL). The values for the selectivity ratio in data set [3] and in data set [4] were 18.9 and 588, respectively.

As for `Cc1cccc2cc(C3SCC(=O)N3NC(=O)c3ccncc3)c3nnnn3c12` (centres undefined), the values for the MIC in data set [1] and in data set [2] were 1770 µM (≈ 718 µg/mL) and 510 µM (≈ 207 µg/mL), respectively. Further, the selectivity ratio in data set [3] came to 139; in data set [4], 476.

As to `CC(=O)O[C@H]1C(=O)[C@@]2(C)[C@H]([C@H](OC(=O)c3ccccc3)[C@]3(O)C[C@H](OC(=O)[C@H](O)[C@@H](NC(=O)c4ccccc4)c4ccccc4)C(C)=C1C3(C)C)[C@]1(OC(C)=O)CO[C@@H]1C[C@@H]2O` [PACLITAXEL], the GI50 is 87 µM in data set [5] and 80 µM in data set [6].

Consider `CO[C@H]1/C=C/O[C@@]2(C)Oc3c(C)c(O)c4c(O)c(c(/C=N/N5CCN(C)CC5)c(O)c4c3C2=O)NC(=O)/C(C)=C\C=C\[C@H](C)[C@H](O)[C@@H](C)[C@@H](O)[C@@H](C)[C@H](OC(C)=O)[C@@H]1C` [RIFAMPIN], for which the MIC turned out to be 24 µM (≈ 19.8 µg/mL) in data set [1] and 21 µM (≈ 17.3 µg/mL) in data set [2]. In addition, the results for the selectivity ratio in data set [3] and in data set [4] were above 5000 and 1750, respectively.

For the origin of these results see ChEMBL document CHEMBL3992486 (Medchemcomm, 2016).
